# Literature values in publication PMC4168267 (Scientific Reports, 2014).
# Experiments:
# chymotrypsin = experiment: chymotrypsin
# Gαi1-GDP = Gαi1-GDP (Homo sapiens, UniProt P63096); details: R6A reference peptide of the competition assay
# Gαi1-GDP, sequence (P63096 whole entry): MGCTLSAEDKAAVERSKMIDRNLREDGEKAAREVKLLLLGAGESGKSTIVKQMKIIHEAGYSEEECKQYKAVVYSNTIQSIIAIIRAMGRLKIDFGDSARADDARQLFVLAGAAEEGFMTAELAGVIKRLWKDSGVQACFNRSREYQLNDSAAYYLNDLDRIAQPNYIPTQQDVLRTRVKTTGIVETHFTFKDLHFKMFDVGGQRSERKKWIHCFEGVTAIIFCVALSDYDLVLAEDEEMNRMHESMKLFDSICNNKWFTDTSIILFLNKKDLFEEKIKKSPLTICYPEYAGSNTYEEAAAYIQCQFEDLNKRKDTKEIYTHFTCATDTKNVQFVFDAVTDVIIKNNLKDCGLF
cleaved bond (chymotrypsin),not cleaved (chymotrypsin),Kd (Gαi1-GDP) [nM],Sequence
"Y5-E, major",intact,–,MITWYEFVAGTK
–,–,60,MSQTKRLDDQLYWWEYL [Peptide R6A]
